Experimental data reported in patent US12319676B2, “Substituted amide compounds useful as farnesoid X receptor modulators” (BRISTOL-MYERS SQUIBB COMPANY, priority 2019, dated 2025).

Biological target: T1, human FXR (Homo sapiens, UniProt Q96RI1)
T1 construct: expressed in transfected cells; host or cells: HEK293 cells stably carrying a 5xGal4 response element-luciferase reporter, transiently transfected with pcDNA3.1-Gal4-FXR
T1 sequence (Q96RI1 262-486 limits assumed): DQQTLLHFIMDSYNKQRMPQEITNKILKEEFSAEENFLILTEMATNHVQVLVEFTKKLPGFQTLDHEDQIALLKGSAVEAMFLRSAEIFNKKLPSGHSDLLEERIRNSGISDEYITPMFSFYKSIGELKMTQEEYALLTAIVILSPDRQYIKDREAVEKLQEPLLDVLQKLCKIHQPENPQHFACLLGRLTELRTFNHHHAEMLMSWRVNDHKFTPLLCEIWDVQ
Experiment: transient human FXR/Gal4-luciferase reporter assay
Type: cell-based
Conditions: Gal4-hFXR fusion construct, luciferase reporter in HEK293 cells; overnight incubation; response as percentage of 8 μM GW-4064 control
Experimental: The exemplified compounds of the present invention were tested in the transient human FXR/Gal4-luciferase reporter assay, and assay results were reported in Table 1 and Examples 1 to 3 together with other analytical data. A Gal4-hFXR fusion construct reporter system was used as the primary assay to characterize compound activity. A construct including 5 copies of the Gal4 promoter response element upstream of a firefly luciferase reporter cDNA was stably expressed in HEK293 cells. This reporter cell line was maintained in Dulbecco's Modified Eagle's medium (DMEM; Gibco) supplemented with 1% penicillin-streptomycin (P/S) solution, 500 μg/mL Zeocin and 10% charcoal/dextran-treated fetal bovine serum (cs-FBS) at 37° C. in a humidified 5% CO2 atmosphere. Another plasmid was constructed in which the human cytomegalovirus promoter in the pcDNA3.1 vector directs the expression of the cDNA encoding a fusion protein comprised of the DNA binding domain from the Gal4 transcription factor fused to the ligand binding domain from human FXR. The day prior to transfection, the reporter cells in culture are detached from the plate with trypsin and plated into a T75 flask at a sufficient density to achieve approximately 90% confluence the next morning. The transfection reagents are prepared by separately diluting 25 μg of the pcDNA3.1-Gal4-FXR plasmid into 1.87 mL of Opti-MEM (Thermo-Fisher), and 40 μL of Lipofectamine 2000 (Thermo-Fisher) into 1.87 mL of Opti-MEM, and then adding the diluted DNA solution into the diluted Lipofectamine 2000 solution and incubating at room temperature for 15-20 minutes. The mixture is further diluted with 10 mL of a solution comprised of DMEM, 10% cs-FBS, and 1% P/S immediately prior to transferring to the cells. The maintenance culture media is aspirated from the cells and the final transfection mixture is added before the cells are incubated overnight at 37° C. in a humidified 5% CO2 atmosphere. This protocol can be scaled up, and the transiently transfected cells can be cryopreserved in an assay-ready format. For compound testing, 100 nL of the compounds (serial dilutions in DMSO) are dispensed with an Echo acoustic dispenser (Labcyte) into the wells of a Corning/Costar clear bottom 384-well white plate. The transfected cells are harvested, counted, and diluted such that 10-25,000 cells in 25 μL are plated into each well of the 384-well compound assay plate. The compound-treated cells are incubated overnight at 37° C. in a humidified 5% CO2 atmosphere. The next morning 25 μL of Steady-Glo (Promega) are added to each well of the plate, the mixture is incubated for 15 min. with shaking, and luminescence is measured on an Envision (Perkin Elmer) plate reader. Background counts from cells treated with DMSO alone are subtracted from all raw counts, and the corrected values are converted to a percentage of the control response attained with 8 μM GW-4064.

Point of comparison: `CC(F)(F)c1ccc(C23CCC(CN(c4cccc(C#N)c4)C(=O)[C@H]4C[C@](O)(C(F)(F)F)C4)(CC2)CC3)nc1` [Example 51, (1S,3S)-N-(3-cyanophenyl)-N-((4-(5-(1,1-difluoroethyl)pyridin-2-yl)bicyclo[2.2.2]octan-1-yl)methyl)-3-hydroxy-3-(trifluoromethyl)cyclobutane-1-carboxamide], EC50 1330 nM. Against it:
- CCOc1cccc(N(CC23CCC(c4nc(C5CC5)no4)(CC2)CC3)C(=O)C2CCOCC2)c1 [Example 55, N-((4-(3-cyclopropyl-1,2,4-oxadiazol-5-yl)bicyclo[2.2.2]octan-1-yl)methyl)-N-(3-ethoxyphenyl)tetrahydro-2H-pyran-4-carboxamide] — 4.2-fold lower, 320 nM
- CS(=O)(=O)Nc1cccc(N(CC23CCC(c4nc(C5CC5)no4)(CC2)CC3)C(=O)C2CC(F)(F)C2)c1 [Example 65, N-((4-(3-cyclopropyl-1,2,4-oxadiazol-5-yl)bicyclo[2.2.2]octan-1-yl)methyl)-3,3-difluoro-N-(3-(methylsulfonamido)phenyl)cyclobutane-1-carboxamide] — within 1.5-fold, 1280 nM
- N#Cc1cccc(N(CC23CCC(c4noc(C(F)(F)F)n4)(CC2)CC3)C(=O)C2CCOCC2)c1 [Example 116, N-(3-cyanophenyl)-N-((4-(5-(trifluoromethyl)-1,2,4-oxadiazol-3-yl)bicyclo[2.2.2]octan-1-yl)methyl)tetrahydro-2H-pyran-4-carboxamide] — 2.6-fold lower, 518 nM
- COc1cccc(N(CC23CCC(c4nc(C5CC5)no4)(CC2)CC3)C(=O)C2CCS(=O)(=O)CC2)c1 [Example 61, N-((4-(3-cyclopropyl-1,2,4-oxadiazol-5-yl)bicyclo[2.2.2]octan-1-yl)methyl)-N-(3-methoxyphenyl)tetrahydro-2H-thiopyran-4-carboxamide 1,1-dioxide] — 3-fold higher, 4000 nM
- CC(F)(F)c1nc(C23CCC(CN(c4cc(F)cc(C#N)c4)C(=O)[C@H]4C[C@](O)(C(F)(F)F)C4)(CC2)CC3)no1 [Example 136, (1S,3S)-N-(3-cyano-5-fluorophenyl)-N-((4-(5-(1,1-difluoroethyl)-1,2,4-oxadiazol-3-yl)bicyclo[2.2.2]octan-1-yl)methyl)-3-hydroxy-3-(trifluoromethyl)cyclobutane-1] — 5.2-fold lower, 256 nM
- CC(C)(C)c1noc(C23CCC(CN(C(=O)C45CC(F)(C4)C5)c4ccc(Cl)c(Br)c4)(CC2)CC3)n1 [Example 37, N-(3-bromo-4-chlorophenyl)-N-((4-(3-(tert-butyl)-1,2,4-oxadiazol-5-yl)bicyclo[2.2.2]octan-1-yl)methyl)-3-fluorobicyclo[1.1.1]pentane-1-carboxamide] — within 1.5-fold, 1080 nM
- O=C(N(CC12CCC(c3ccc(C(F)(F)F)cn3)(CC1)CC2)c1cccc(Nc2ccc(OC(F)F)cn2)c1)C12CC(F)(C1)C2 [Example 108, N-(3-((5-(difluoromethoxy)pyridin-2-yl)amino)phenyl)-3-fluoro-N-((4-(5-(trifluoromethyl)pyridin-2-yl)bicyclo[2.2.2]octan-1-yl)methyl)bicyclo[1.1.1]pentane-1-carboxamide] — 2.1-fold lower, 629 nM
- CC(C)Oc1cccc(N(CC23CCC(c4nc(C(C)(C)C)no4)(CC2)CC3)C(=O)C23CC(F)(C2)C3)c1 [Example 124, N-((4-(3-(tert-butyl)-1,2,4-oxadiazol-5-yl)bicyclo[2.2.2]octan-1-yl)methyl)-3-fluoro-N-(3-isopropoxyphenyl)bicyclo[1.1.1]pentane-1-carboxamide] — 1.5-fold higher, 2000 nM
- CC(F)(F)c1nc(C23CCC(CN(C(=O)C4CC(O)(C(F)(F)F)C4)c4cccc(C#N)c4)(CC2)CC3)no1 (centres unmarked) [Example 5, N-(3-cyanophenyl)-N-((4-(5-(1,1-difluoroethyl)-1,2,4-oxadiazol-3-yl)bicyclo[2.2.2]octan-1-yl)methyl)-3-hydroxy-3-(trifluoromethyl)cyclobutane-1-carboxamide] — 8.1-fold lower, 164 nM
- Cn1nc(C2CC2)cc1C12CCC(CN(C(=O)C34CC(F)(C3)C4)c3cccc(C#N)c3)(CC1)CC2 [Example 72, N-(3-cyanophenyl)-N-((4-(3-cyclopropyl-1-methyl-1H-pyrazol-5-yl)bicyclo[2.2.2]octan-1-yl)methyl)-3-fluorobicyclo[1.1.1]pentane-1-carboxamide] — within 1.5-fold, 993 nM
- Cn1nc(C2CC2)cc1C12CCC(CN(c3cccc(C#N)c3)C(=O)[C@H]3C[C@](O)(C(F)(F)F)C3)(CC1)CC2 [Example 75, (1S,3S)-N-(3-cyanophenyl)-N-((4-(3-cyclopropyl-1-methyl-1H-pyrazol-5-yl)bicyclo[2.2.2]octan-1-yl)methyl)-3-hydroxy-3-(trifluoromethyl)cyclobutane-1-carboxamide] — within 1.5-fold, 1380 nM
- CC(F)(F)c1nc(C23CCC(CN(C(=O)C4CC4(F)F)c4cccc(Br)c4)(CC2)CC3)no1 (racemic) [Example 31, N-(3-bromophenyl)-N-((4-(5-(1,1-difluoroethyl)-1,2,4-oxadiazol-3-yl)bicyclo[2.2.2]octan-1-yl)methyl)-2,2-difluorocyclopropane-1-carboxamide] — 5.1-fold lower, 261 nM
- CC(C)(C)c1noc(C23CCC(CN(C(=O)C45CC(F)(C4)C5)c4cccc(P(C)(C)=O)c4)(CC2)CC3)n1 [Example 43, N-((4-(3-(tert-butyl)-1,2,4-oxadiazol-5-yl)bicyclo[2.2.2]octan-1-yl)methyl)-N-(3-(dimethylphosphoryl)phenyl)-3-fluorobicyclo[1.1.1]pentane-1-carboxamide] — 3-fold higher, 4000 nM
- CNS(=O)(=O)c1cccc(N(CC23CCC(c4noc(C(C)(F)F)n4)(CC2)CC3)C(=O)[C@H]2C[C@](O)(C(F)(F)F)C2)c1 [Example 22, (1S,3S)-N-((4-(5-(1,1-difluoroethyl)-1,2,4-oxadiazol-3-yl)bicyclo[2.2.2]octan-1-yl)methyl)-3-hydroxy-N-(3-(N-methylsulfamoyl)phenyl)-3-(trifluoromethyl)cyclobutane-1-carboxamide] — 3-fold higher, 4000 nM
- COc1cccc(N(CC23CCC(c4nc(C5CC5)no4)(CC2)CC3)C(=O)C23CC(F)(C2)C3)c1 [Example 58, N-((4-(3-cyclopropyl-1,2,4-oxadiazol-5-yl)bicyclo[2.2.2]octan-1-yl)methyl)-3-fluoro-N-(3-methoxyphenyl)bicyclo[1.1.1]pentane-1-carboxamide] — 3.9-fold lower, 345 nM
- CC(F)(F)c1nc(C23CCC(CN(c4cccc(F)c4)C(=O)[C@H]4C[C@](O)(C(F)(F)F)C4)(CC2)CC3)no1 [Example 8, N-((4-(5-(1,1-difluoroethyl)-1,2,4-oxadiazol-3-yl)bicyclo[2.2.2]octan-1-yl)methyl)-N-(3-fluorophenyl)-3-hydroxy-3-(trifluoromethyl)cyclobutane-1-carboxamide] — 2.9-fold lower, 462 nM
- CC(F)(F)c1nc(C23CCC(CN(C(=O)C45CC(F)(C4)C5)c4cccc(OC(F)F)c4)(CC2)CC3)no1 [Example 12, N-((4-(5-(1,1-difluoroethyl)-1,2,4-oxadiazol-3-yl)bicyclo[2.2.2]octan-1-yl)methyl)-N-(3-(difluoromethoxy)phenyl)-3-fluorobicyclo[1.1.1]pentane-1-carboxamide] — 18-fold lower, 73 nM
- CC(F)(F)c1nc(C23CCC(CN(C(=O)N[C@H]4CC[C@H](O)CC4)c4cccc(C#N)c4)(CC2)CC3)no1 [Example 98, 1-(3-cyanophenyl)-1-((4-(5-(1,1-difluoroethyl)-1,2,4-oxadiazol-3-yl)bicyclo[2.2.2]octan-1-yl)methyl)-3-((1R,4R)-4-hydroxycyclohexyl)urea] — 5.8-fold lower, 230 nM
- CC(F)(F)c1nc(C23CCC(CN(c4cccc(OC(F)F)c4)C(=O)[C@H]4C[C@](O)(C(F)(F)F)C4)(CC2)CC3)no1 [Example 13, N-((4-(5-(1,1-difluoroethyl)-1,2,4-oxadiazol-3-yl)bicyclo[2.2.2]octan-1-yl)methyl)-N-(3-(difluoromethoxy)phenyl)-3-hydroxy-3-(trifluoromethyl)cyclobutane-1-carboxamide] — 4.4-fold lower, 302 nM
